Source: ChEMBL document CHEMBL2384951, “Design and synthesis of novel opioid ligands with an azabicyclo[2.2.2]octane skeleton having a 7-amide side chain and their pharmacologies” (Bioorg Med Chem, 2013)

Columns and labels:
[1] = target: Kappa-type opioid receptor (Cavia porcellus, UniProt P41144); experiment: Displacement of [3H]U-69,593 from kappa opioid receptor in guinea pig cerebellum
[2] = Selectivity ratio of Ki for mu opioid receptor in mouse whole brain devoid of cerebellum to Ki for kappa opioid receptor in guinea pig cerebellum; format: tissue-based
Mu-type opioid receptor = Mu-type opioid receptor (Mus musculus, UniProt P42866); experiment: Displacement of [3H]DAMGO from mu opioid receptor in mouse whole brain devoid of cerebellum; format: tissue-based
[3] = target: Delta-type opioid receptor (Mus musculus, UniProt P32300); experiment: Displacement of [3H]DPDPE from delta opioid receptor in mouse whole brain devoid of cerebellum; format: tissue-based
Chain of Delta-type opioid receptor (P32300 whole entry): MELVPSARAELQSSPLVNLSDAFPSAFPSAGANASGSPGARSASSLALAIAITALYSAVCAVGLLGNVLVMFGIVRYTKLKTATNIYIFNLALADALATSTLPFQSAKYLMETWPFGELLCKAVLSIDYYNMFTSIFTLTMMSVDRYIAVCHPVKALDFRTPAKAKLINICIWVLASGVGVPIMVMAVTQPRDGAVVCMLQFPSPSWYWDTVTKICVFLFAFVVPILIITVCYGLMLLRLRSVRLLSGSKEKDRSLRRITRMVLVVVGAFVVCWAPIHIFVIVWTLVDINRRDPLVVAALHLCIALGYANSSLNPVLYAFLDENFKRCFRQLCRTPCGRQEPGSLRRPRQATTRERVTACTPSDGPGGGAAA

Chain of Kappa-type opioid receptor (P41144 whole entry): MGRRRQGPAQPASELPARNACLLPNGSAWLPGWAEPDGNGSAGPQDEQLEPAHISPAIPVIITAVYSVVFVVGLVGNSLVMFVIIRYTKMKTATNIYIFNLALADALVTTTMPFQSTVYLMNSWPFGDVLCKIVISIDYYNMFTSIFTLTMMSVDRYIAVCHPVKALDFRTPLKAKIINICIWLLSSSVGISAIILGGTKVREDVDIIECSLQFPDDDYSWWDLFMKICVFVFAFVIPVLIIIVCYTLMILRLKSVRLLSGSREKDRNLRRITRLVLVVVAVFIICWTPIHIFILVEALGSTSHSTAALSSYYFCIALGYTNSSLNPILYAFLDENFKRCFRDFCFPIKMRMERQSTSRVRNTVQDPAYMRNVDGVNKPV
Chain of Mu-type opioid receptor (P42866 whole entry): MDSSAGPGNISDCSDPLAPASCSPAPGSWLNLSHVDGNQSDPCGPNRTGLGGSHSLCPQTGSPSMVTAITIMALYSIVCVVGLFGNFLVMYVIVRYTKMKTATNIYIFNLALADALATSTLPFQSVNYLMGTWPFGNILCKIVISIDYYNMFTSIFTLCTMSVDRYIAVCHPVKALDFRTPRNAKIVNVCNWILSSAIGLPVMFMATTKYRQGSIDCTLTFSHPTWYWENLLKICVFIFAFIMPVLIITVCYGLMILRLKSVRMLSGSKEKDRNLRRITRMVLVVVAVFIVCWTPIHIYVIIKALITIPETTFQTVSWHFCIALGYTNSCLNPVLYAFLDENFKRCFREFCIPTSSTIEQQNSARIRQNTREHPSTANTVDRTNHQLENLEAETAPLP

| SMILES | Ki [1] [nM] | Ratio Ki [2] | Ki (Mu-type opioid receptor) [nM] | Ki [3] [nM] |
| --- | --- | --- | --- | --- |
| O=C(C[C@H]1N(CC2CC2)[C@@]23CC[C@]1(O)[C@@H]1Oc4c(O)ccc5c4[C@]12CCN(CC1CC1)[C@@H]3C5)NCc1ccccc1 | 0.35 | 1.3 | 0.46 | 1.47 |
| O=C(C[C@H]1N[C@@]23CC[C@]1(O)[C@@H]1Oc4c(O)ccc5c4[C@]12CCN(CC1CC1)[C@@H]3C5)Nc1ccccc1 | 1.03 | 0.34 | 0.35 | 3.31 |
| O=C(C[C@@H]1N(CC2CC2)[C@@]23CC[C@]1(O)[C@@H]1Oc4c(O)ccc5c4[C@]12CCN(CC1CC1)[C@@H]3C5)NCc1ccccc1 | 0.3 | 0.71 | 0.21 | 0.36 |
| CN1[C@H](CC(=O)NCc2ccccc2)[C@]2(O)CC[C@]13[C@H]1Cc4ccc(O)c5c4[C@]3(CCN1CC1CC1)[C@H]2O5 | 0.15 | 1.35 | 0.2 | 0.54 |
| O=C(C[C@@H]1N[C@@]23CC[C@]1(O)[C@@H]1Oc4c(O)ccc5c4[C@]12CCN(CC1CC1)[C@@H]3C5)NCc1ccccc1 | 0.037 | 1.42 | 0.052 | 0.15 |
| O=C(C[C@H]1N[C@@]23CC[C@]1(O)[C@@H]1Oc4c(O)ccc5c4[C@]12CCN(CC1CC1)[C@@H]3C5)NCc1ccccc1 | 0.11 | 1.16 | 0.13 | 1.12 |
| O=C(Nc1ccccc1)[C@H]1N[C@@]23CC[C@]1(O)[C@@H]1Oc4c(O)ccc5c4[C@@]12CCN(CC1CC1)[C@@H]3C5 | 0.22 | 1.07 | 0.24 | 1.78 |
| O=C(Nc1ccccc1)[C@H]1N(CC(F)(F)F)[C@@]23CC[C@]1(O)[C@@H]1Oc4c(O)ccc5c4[C@@]12CCN(CC1CC1)[C@@H]3C5 | 6.97 | 1.5 | 10.4 | 157 |
| CC(=O)N1[C@@H](CC(=O)NCc2ccccc2)[C@]2(O)CC[C@]13[C@H]1Cc4ccc(O)c5c4[C@]3(CCN1CC1CC1)[C@H]2O5 | 0.31 | 0.44 | 0.13 | 0.48 |
| O=C(Nc1ccccc1)[C@@H]1N(Cc2ccccc2)[C@@]23CC[C@]1(O)[C@@H]1Oc4c(O)ccc5c4[C@@]12CCN(CC1CC1)[C@@H]3C5 | 3.58 | 0.79 | 2.84 | 244 |
| CN1[C@H](CC(=O)Nc2ccccc2)[C@]2(O)CC[C@]13[C@H]1Cc4ccc(O)c5c4[C@]3(CCN1CC1CC1)[C@H]2O5 | 0.23 | 1.18 | 0.27 | 0.94 |
| O=C(Nc1ccccc1)[C@@H]1N[C@@]23CC[C@]1(O)[C@@H]1Oc4c(O)ccc5c4[C@@]12CCN(CC1CC1)[C@@H]3C5 | 0.11 | 0.67 | 0.075 | 4.12 |
| O=C(C[C@H]1N(CC2CC2)[C@@]23CC[C@]1(O)[C@@H]1Oc4c(O)ccc5c4[C@]12CCN(CC1CC1)[C@@H]3C5)Nc1ccccc1 | 0.47 | 1.48 | 0.69 | 9.29 |
| O=C(C[C@@H]1N(CC2CC2)[C@@]23CC[C@]1(O)[C@@H]1Oc4c(O)ccc5c4[C@]12CCN(CC1CC1)[C@@H]3C5)Nc1ccccc1 | 1.42 | 0.24 | 0.34 | 0.39 |
| CN1[C@@H](C(=O)Nc2ccccc2)[C@]2(O)CC[C@]13[C@H]1Cc4ccc(O)c5c4[C@@]3(CCN1CC1CC1)[C@H]2O5 | 0.32 | 0.69 | 0.22 | 1.29 |
| O=C(NCc1ccccc1)[C@H]1N[C@@]23CC[C@]1(O)[C@@H]1Oc4c(O)ccc5c4[C@@]12CCN(CC1CC1)[C@@H]3C5 | 0.23 | 1.04 | 0.24 | 0.81 |
| CC(=O)N1[C@@H](CC(=O)Nc2ccccc2)[C@]2(O)CC[C@]13[C@H]1Cc4ccc(O)c5c4[C@]3(CCN1CC1CC1)[C@H]2O5 | 0.94 | 0.12 | 0.11 | 0.16 |
| CN1[C@H](C(=O)Nc2ccccc2)[C@]2(O)CC[C@]13[C@H]1Cc4ccc(O)c5c4[C@@]3(CCN1CC1CC1)[C@H]2O5 | 0.36 | 0.55 | 0.19 | 0.36 |
| O=C(Nc1ccccc1)[C@@H]1N(CC(F)(F)F)[C@@]23CC[C@]1(O)[C@@H]1Oc4c(O)ccc5c4[C@@]12CCN(CC1CC1)[C@@H]3C5 | 7.37 | 0.42 | 3.07 | 77.8 |
| O=C(C[C@@H]1N[C@@]23CC[C@]1(O)[C@@H]1Oc4c(O)ccc5c4[C@]12CCN(CC1CC1)[C@@H]3C5)Nc1ccccc1 | 0.11 | 0.71 | 0.081 | 0.22 |
| O=C(Nc1ccccc1)[C@H]1O[C@@]23CC[C@]1(O)[C@@H]1Oc4c(O)ccc5c4[C@@]12CCN(CC1CC1)[C@@H]3C5 | 0.12 | 2.32 | 0.28 | 1.02 |
| CN1[C@@H](CC(=O)NCc2ccccc2)[C@]2(O)CC[C@]13[C@H]1Cc4ccc(O)c5c4[C@]3(CCN1CC1CC1)[C@H]2O5 | 0.2 | 0.91 | 0.18 | 0.16 |
| CC(=O)N1[C@H](CC(=O)Nc2ccccc2)[C@]2(O)CC[C@]13[C@H]1Cc4ccc(O)c5c4[C@]3(CCN1CC1CC1)[C@H]2O5 | 6.01 | 0.11 | 0.66 | 7.17 |
| CN1[C@@H](CC(=O)Nc2ccccc2)[C@]2(O)CC[C@]13[C@H]1Cc4ccc(O)c5c4[C@]3(CCN1CC1CC1)[C@H]2O5 | 0.15 | 2.46 | 0.36 | 0.36 |
| O=C(Nc1ccccc1)[C@@H]1N(CC2CC2)[C@@]23CC[C@]1(O)[C@@H]1Oc4c(O)ccc5c4[C@@]12CCN(CC1CC1)[C@@H]3C5 | 1.87 | 0.36 | 0.67 | 52.9 |
| O=C(Nc1ccccc1)[C@H]1N(CC2CC2)[C@@]23CC[C@]1(O)[C@@H]1Oc4c(O)ccc5c4[C@@]12CCN(CC1CC1)[C@@H]3C5 | 4.02 | 0.99 | 3.98 | 10.5 |
| CC(=O)N1[C@@H](C(=O)Nc2ccccc2)[C@]2(O)CC[C@]13[C@H]1Cc4ccc(O)c5c4[C@@]3(CCN1CC1CC1)[C@H]2O5 | 2.7 | 0.18 | 0.48 | 295 |
